Measurements: PubChem BioAssay AID330 (DTP/NCI, 2004)
Several values for one entry are separate records, joined by “and”; a condition that tells them apart may be missing. Identical values can stand only once. Toxic doses and inconclusive results are not listed. Rule for the calls: active = survival T/C of 150% or more; inactive = T/C below 125% in these data.

System: P388 leukemia ip, CD2F1 mice, survival T/C
Assay: NCI In Vivo Anticancer Drug Screen. Data for tumor model P388 Leukemia (intraperitoneal) in CD2F1 (CDF1) mice
Conditions: endpoint: median survival time, higher = longer survival
Summary of the method: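 Mice carrying the transplanted tumor received test compound or vehicle. Survival was recorded in each group, and the value is the treated-group measurement divided by that of the vehicle-treated control group.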

[1] = dose: 50.0 mg/kg/injection, schedule: Q01DX009 (ip), vehicle: Klucel (hydroxypropylcellulose) (HPC)
[2] = dose: 100.0 mg/kg/injection, schedule: Q01DX009 (ip), vehicle: Klucel (hydroxypropylcellulose) (HPC)
[3] = dose: 200.0 mg/kg/injection, schedule: Q01DX009 (ip), vehicle: Klucel (hydroxypropylcellulose) (HPC)
[4] = dose: 50.0 mg/kg/injection, schedule: Q01DX009 (ip), vehicle: saline with Tween-80
[5] = dose: 100.0 mg/kg/injection, schedule: Q01DX009 (ip), vehicle: saline with Tween-80
[6] = dose: 60.0 mg/kg/injection, schedule: Q01DX005 (ip), vehicle: saline with Tween-80
[7] = dose: 120.0 mg/kg/injection, schedule: Q01DX005 (ip), vehicle: saline with Tween-80
[8] = dose: 240.0 mg/kg/injection, schedule: Q01DX005 (ip), vehicle: saline with Tween-80
[9] = dose: 60.0 mg/kg/injection, schedule: Q01DX005 (ip), vehicle: Klucel (hydroxypropylcellulose) (HPC)
[10] = dose: 50.0 mg/kg/injection, schedule: Q01DX005 (ip), vehicle: saline with Tween-80
[11] = dose: 100.0 mg/kg/injection, schedule: Q01DX005 (ip), vehicle: saline with Tween-80
[12] = dose: 200.0 mg/kg/injection, schedule: Q01DX005 (ip), vehicle: saline with Tween-80
[13] = dose: 12.5 mg/kg/injection, schedule: Q01DX009 (ip), vehicle: saline with Tween-80
[14] = dose: 25.0 mg/kg/injection, schedule: Q01DX009 (ip), vehicle: saline with Tween-80

Measured: T/C

CCN(Cc1c(C)[nH]c2ccc(N(C)C)cc2c1=O)Cc1c(C)[nH]c2ccc(N(C)C)cc2c1=O
inactive: dose: 50.0 mg/kg/injection, schedule: Q01DX009 (ip), vehicle: saline 101 % of control | dose: 100.0 mg/kg/injection, schedule: Q01DX009 (ip), vehicle: saline 101 % of control | dose: 200.0 mg/kg/injection, schedule: Q01DX009 (ip), vehicle: saline 106 % of control

Cc1ccc(/C=N/S(=O)(=O)Cc2ccccc2)cc1
inactive: [1] 99 % of control | [2] 100 % of control | [3] 100 % of control

C=COS(=O)O
inactive: dose: 3.12 mg/kg/injection, schedule: Q01DX009 (ip), vehicle: saline 104 % of control | dose: 6.25 mg/kg/injection, schedule: Q01DX009 (ip), vehicle: saline 104 % of control | dose: 12.5 mg/kg/injection, schedule: Q01DX009 (ip), vehicle: saline 105 % of control

ClC(Cl)=[C](Cl)[Hg][C](Cl)=C(Cl)Cl
inactive: dose: 3.13 mg/kg/injection, schedule: Q01DX009 (ip), vehicle: Klucel (hydroxypropylcellulose) (HPC) 105 % of control | dose: 6.25 mg/kg/injection, schedule: Q01DX009 (ip), vehicle: Klucel (hydroxypropylcellulose) (HPC) 100 % of control | dose: 12.5 mg/kg/injection, schedule: Q01DX009 (ip), vehicle: Klucel (hydroxypropylcellulose) (HPC) 97 % of control

OCC1C2CCCC12 (stereo not given)
inactive: [4] 95 % of control | [5] 114 % of control | dose: 200.0 mg/kg/injection, schedule: Q01DX009 (ip), vehicle: saline with Tween-80 104 % of control

COc1ccc(OC)c(NC(=O)OCc2ccc3c(c2)OCO3)c1
inactive: [6] 98 % of control | [7] 95 % of control | [8] 93 % of control

NC(=NCc1ccccc1)N/N=C\c1ccnc2ccccc12
inactive: dose: 15.0 mg/kg/injection, schedule: Q01DX005 (ip), vehicle: Klucel (hydroxypropylcellulose) (HPC) 101 % of control | dose: 30.0 mg/kg/injection, schedule: Q01DX005 (ip), vehicle: Klucel (hydroxypropylcellulose) (HPC) 97 % of control | [9] 95 % of control and 97 % of control

CC(=NCc1ccccc1)c1c(C)cc(=O)n(-c2ccccc2)c1O
inactive: [6] 96 % of control | [7] 97 % of control | [8] 89 % of control

CC1=NN(C(=O)c2cccnc2)C(=O)C1N=Nc1ccc(S(=O)(=O)Nc2ccccn2)cc1 (stereo not given)
inactive: dose: 100.0 mg/kg/injection, schedule: Q04DX003 (ip), vehicle: saline with Tween-80 94 % of control | dose: 200.0 mg/kg/injection, schedule: Q04DX003 (ip), vehicle: saline with Tween-80 93 % of control | dose: 400.0 mg/kg/injection, schedule: Q04DX003 (ip), vehicle: saline with Tween-80 90 % of control

Cc1cc(NC(=O)c2ccc(N=Nc3c(O)c(S(=O)(=O)O)cc4cc(S(=O)(=O)O)ccc34)cc2)ccc1N=Nc1ccc2cc(S(=O)(=O)O)cc(S(=O)(=O)O)c2c1
inactive: [10] 95 % of control | [11] 98 % of control | [12] 104 % of control

[Ni].c1c[nH]cn1.c1c[nH]cn1.c1c[nH]cn1.c1c[nH]cn1.c1c[nH]cn1.c1c[nH]cn1
inactive: dose: 6.25 mg/kg/injection, schedule: Q01DX005 (ip), vehicle: saline 92 % of control | dose: 12.5 mg/kg/injection, schedule: Q01DX005 (ip), vehicle: saline 86 % of control | dose: 25.0 mg/kg/injection, schedule: Q01DX005 (ip), vehicle: saline 87 % of control | dose: 50.0 mg/kg/injection, schedule: Q01DX005 (ip), vehicle: saline 100 % of control

COc1cc2c(cc1C(C)(C)c1ccccc1)OCO2
inactive: [10] 99 % of control | [11] 100 % of control | [12] 101 % of control

COc1ccc2c(c1OC)-c1ccccc1C(=O)OC2
inactive: dose: 100.0 mg/kg/injection, schedule: Q04DX002 (ip), vehicle: saline with Tween-80 109 % of control | dose: 200.0 mg/kg/injection, schedule: Q04DX002 (ip), vehicle: saline with Tween-80 100 % of control | dose: 400.0 mg/kg/injection, schedule: Q04DX002 (ip), vehicle: saline with Tween-80 91 % of control

CC(O)CCC(=O)c1ccoc1 (stereo not given)
inactive: dose: 1.87 mg/kg/injection, schedule: Q01DX005 (ip), vehicle: saline 97 % of control | dose: 3.75 mg/kg/injection, schedule: Q01DX005 (ip), vehicle: saline 100 % of control | dose: 7.5 mg/kg/injection, schedule: Q01DX005 (ip), vehicle: saline 100 % of control and 96 % of control | dose: 15.0 mg/kg/injection, schedule: Q01DX005 (ip), vehicle: saline 100 % of control and 93 % of control | dose: 30.0 mg/kg/injection, schedule: Q01DX005 (ip), vehicle: saline 109 % of control

CN=C1NC2C(C(=O)N(C)C(=O)N2C)C(=S)N1C (stereo not given)
inactive: dose: 6.25 mg/kg/injection, schedule: Q04DX002 (ip), vehicle: saline with Tween-80 100 % of control | dose: 12.5 mg/kg/injection, schedule: Q04DX002 (ip), vehicle: saline with Tween-80 104 % of control | dose: 25.0 mg/kg/injection, schedule: Q04DX002 (ip), vehicle: saline with Tween-80 101 % of control

C[CH2][Sn]([Cl])([Cl])[CH2]C.c1ccc2nc(-c3ccc4ccccc4n3)ccc2c1
inactive: [9] 106 % of control | dose: 120.0 mg/kg/injection, schedule: Q01DX005 (ip), vehicle: Klucel (hydroxypropylcellulose) (HPC) 106 % of control | dose: 240.0 mg/kg/injection, schedule: Q01DX005 (ip), vehicle: Klucel (hydroxypropylcellulose) (HPC) 103 % of control

CCOC(=O)C(C)(C)Br
inactive: dose: 100.0 mg/kg/injection, schedule: Q01DX009 (ip), vehicle: saline sonified 105 % of control | dose: 200.0 mg/kg/injection, schedule: Q01DX009 (ip), vehicle: saline sonified 105 % of control | dose: 400.0 mg/kg/injection, schedule: Q01DX009 (ip), vehicle: saline sonified 115 % of control

CCOC(=O)c1cnc2ncccn12
inactive: [1] 99 % of control | [2] 101 % of control | [3] 91 % of control

N#Cc1c(SCc2ccc(Cl)cc2)nsc1Nc1ccc(Cl)cc1
inactive: [13] 96 % of control | [14] 91 % of control | [4] 92 % of control

Cc1ccc(S(=O)(=O)NN=c2c3ccccc3ccc3ccccc23)cc1
inactive: dose: 100.0 mg/kg/injection, schedule: Q04DX002 (ip), vehicle: Klucel (hydroxypropylcellulose) (HPC) 94 % of control | dose: 200.0 mg/kg/injection, schedule: Q04DX002 (ip), vehicle: Klucel (hydroxypropylcellulose) (HPC) 91 % of control | dose: 400.0 mg/kg/injection, schedule: Q04DX002 (ip), vehicle: Klucel (hydroxypropylcellulose) (HPC) 90 % of control

O=C1NC(=O)[C@H]2C[C@H]3C(=O)NC(=O)[C@H]3[C@@H]12
inactive: dose: 25.0 mg/kg/injection, schedule: Q01DX009 (ip), vehicle: Klucel (hydroxypropylcellulose) (HPC) 99 % of control | [1] 101 % of control | [2] 102 % of control and 107 % of control | [3] 101 % of control and 107 % of control | dose: 400.0 mg/kg/injection, schedule: Q01DX009 (ip), vehicle: Klucel (hydroxypropylcellulose) (HPC) 96 % of control

Cn1cccc1/C=N/N1CC(=O)N(c2ccc(Cl)cc2)CC1=O
inactive: [10] 110 % of control | [11] 106 % of control | [12] 88 % of control

CC1=NN(C)C(=O)C1
inactive: dose: 50.0 mg/kg/injection, schedule: Q04DX003 (ip), vehicle: saline 102 % of control | dose: 100.0 mg/kg/injection, schedule: Q04DX003 (ip), vehicle: saline 101 % of control | dose: 200.0 mg/kg/injection, schedule: Q04DX003 (ip), vehicle: saline 104 % of control | dose: 400.0 mg/kg/injection, schedule: Q04DX003 (ip), vehicle: saline 111 % of control

COc1ccc(C2COc3c(ccc(O)c3O)C2)cc1 (stereo not given)
inactive: [6] 104 % of control | [7] 96 % of control | [8] 99 % of control

CCCCN(CCCC)CC(O)c1cc(-c2ccc(Cl)cc2)nc(-c2ccc(Cl)cc2)c1 (stereo not given)
inactive: [13] 90 % of control | [14] 90 % of control | [4] 92 % of control and 93 % of control | [5] 90 % of control

O=[Se]([O][Sn]([O][Se](=O)c1ccccc1)([O][Se](=O)c1ccccc1)[c]1ccccc1)c1ccccc1 (stereo not given)
inactive: [14] 104 % of control and 96 % of control | [4] 100 % of control and 103 % of control and 118 % of control | [5] 111 % of control and 121 % of control and 96 % of control
